For one compound, NIR fluorescence spectra, fluorescence peak and NIR absorption results are on record in patent publication US20050065436A1, “Rapid and non-invasive optical detection of internal bleeding” (priority 2003, published 2005).

SMILES strings stand for the structures.

This data set can be described thus: NIR absorption and fluorescence spectra of indocyanine green. It counts as physicochemical. From the text:
Many NIR fluorescence compounds are potential candidates for the present application. One of examples, indocyanine green (ICG), because of its low toxicity, has been used in many clinical applications. Indocyanine green, molecular weight 775, is a tricarbocyanine type of green dye. FIG. 2 and FIG. 3 show the NIR absorption, 650-850 nm, and NIR fluorescence spectra, 650-900 nm, of ICG, respectively. ICG has little absorption in the visible light. However, it is easily excited by an NIR light source with high quantum efficiency. Diode laser light sources with a wavelength between […] is suitable for ICG excitation. The fluorescent peak has a large red shifted relatively to the excitation wavelength. The fluorescence peak at 810 nm is within the NIR window for tissue optics. Due to ICG has a very large fluorescent quantum yield and a distinct peak at 810 nm, a sensitivity of 0.5 μg/ml can be achieved easily. FIG. 3(a), (b), and (c) show the fluorescence spectra of ICG in blood samples with various concentration between 0.5-500 μg/ml

Consider `CC1(C)C(/C=C/C=C/C=C/C=C2\N(CCCCS(=O)(=O)O)c3ccc4ccccc4c3C2(C)C)=[N+](CCCCS(=O)(=O)[O-])c2ccc3ccccc3c21` [ICG, Indocyanine green], for which the NIR fluorescence spectra (FIG. 3) is reported as 650-900 nm. Under “FIG. 3, concentrations 0.5-500 μg/ml”, this compound came in with a fluorescence peak of 810 nm. Besides, the NIR absorption (absorption spectrum, FIG. 2) is 650-850 nm.
